According to patent US20080176857A1, “4-Piperazinnylthieno[2,3-d]Pyrimidine Compounds as Platelet Aggregation Inhibitors” (priority 2005, published 2008):
“And” between values parts separate entries of the source, which are not always exact repeats. Identical values can stand only once.

Target: P2Y12 receptor (Homo sapiens, UniProt Q9H244)
Assay: [33P]-2MeS-ADP binding to recombinant human P2Y12 membranes (Assay 3)
Set-up: expressed in transfected cells; host or cells: HEK cells
Conditions: for % Inhibition / inhibition at 10 µM: 10 μM; for IC50 / Ki: HEK cell membranes expressing human P2Y12, competition with 33P 2MeS-ADP
Experimental: 3. Human P2Y12 Recombinant Cell Membrane Binding Assay with ^33P 2MeS-ADP.
The ability of a test compound to bind to the P2Y12 receptor was evaluated in a recombinant cell membrane binding assay. In this competitive binding assay, the test compound competed against a radiolabelled agonist for binding to the P2Y12 receptor, expressed on the cell membrane. Inhibition of binding of the labeled material was measured and correlated to the amount and potency of the test compound. Data from this assay are presented in Table F. This binding assay is a modification of the procedure in Takasaki, J. et. al, Mol. Pharmacol., 2001, Vol. 60, pg. 432.
HEK cells were transfected with the pDONR201P2Y12 vector and cultured in MEM with GlutaMAX I, Earle's salts, 25 mM HEPES (Gibco # 42360-032) containing 10% dialyzed FBS (Gibco # 26400-044), 100 μM nonessential amino acids (Gibco # 11140-050), 1 mM sodium pyruvate (Gibco # 11360-070), 0.05% geneticin (Gibco #10131-027), 3 μg/mL blasticidin (Fluka brand from Sigma # 15205), and 0.5 μg/mL puromycin (Sigma # P-8833).
Confluent cells were washed once with cold DPBS (Gibco # 14190-136). Fresh DPBS was added and the cells were scraped and centrifuged at 500×g for 5 minutes at 4° C. The cell pellets were resuspended in TEE buffer (25 mM Tris, 5 mM EDTA, 5 mM EGTA) containing 1 protease inhibitor cocktail tablet (Roche # 1 873 580) per 50 mL (called TEE+Complete) and can be flash frozen at this point.
In one embodiment, frozen cell pellets were used to prepare the membranes. In that embodiment, the frozen cell pellets were thawed on ice. In another embodiment, cell pellets may be used without flash freezing before moving on to the next step.
Cell pellets were resuspended in TEE buffer+Complete and homogenized in a glass dounce for 12 strokes. The cell suspension was centrifuged at 500×g for 5 minutes at 4° C. The supernatant was saved and centrifuged at 20,000×g for 20 minutes at 4° C. This supernatant was discarded and the cell pellet resuspended in TEE buffer+Complete and homogenized in a glass dounce for 12 strokes. This suspension was centrifuged at 20,000×g for 20 minutes at 4° C. and the supernatant discarded. The pellet was resuspended in assay buffer (50 mM Tris, 100 mM NaCl, 1 mM EDTA) containing one protease inhibitor cocktail tablet per 50 mL, and can be flash frozen as 1 mL aliquots at this point.
Dry compounds were diluted as 10 mM DMSO stocks and tested in a seven-point, three-fold dilution series run in triplicate beginning at 10 μM, final concentration. A 1 mM DMSO intermediate stock was made in a dilution plate and from this the seven dilutions were made to 5× the final concentration in assay buffer containing 0.02% BSA.
The plates were incubated at room temperature for 1 hour. The reaction was stopped using a cell harvester to transfer the reaction mixture onto GF/B UniFilter plates (Perkin Elmer # 6005177), and washed three times with wash buffer (50 mM Tris), filtering between each wash. The filter plates were dried for approximately 20 minutes in an oven at 50° C. Back seals were adhered to the filter plates and 25 uL of Microscint 20 scintillation fluid (Perkin Elmer # 6013621) were added. The filter plates were sealed, shaken for 30 minutes, and counted on a Top Count. Data were analyzed using a four-parameter curve fit with a fixed minimum and maximum experimentally defined as the average positive and negative controls on each plate, and with a hill slope equal to one.
The table below presents the IC50, Ki, and percent inhibition values for compounds tested in either washed human platelets membrane binding assay (assay #1 above) or recombinant cell membrane binding assay (Assay #3, above). Example number refers to the compound prepared as described in the example noted in the section Working Examples, above. The highest concentration of candidate compound tested is listed for each experimental run presented. […]

[1] = at highest concentration tested

Chain of P2Y12 receptor (Q9H244 whole entry): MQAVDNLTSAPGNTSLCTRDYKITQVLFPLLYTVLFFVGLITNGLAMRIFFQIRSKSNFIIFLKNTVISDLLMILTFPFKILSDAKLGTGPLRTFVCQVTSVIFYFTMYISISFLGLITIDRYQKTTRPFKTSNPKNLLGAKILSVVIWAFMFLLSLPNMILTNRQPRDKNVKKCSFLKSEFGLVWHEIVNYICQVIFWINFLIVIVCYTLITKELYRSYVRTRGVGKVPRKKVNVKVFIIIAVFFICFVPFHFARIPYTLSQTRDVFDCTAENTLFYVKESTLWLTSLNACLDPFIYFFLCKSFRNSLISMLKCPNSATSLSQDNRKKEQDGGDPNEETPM

Q: What does the source list for CCc1cc2c(N3CCN(C(=O)Cc4ccccc4)CC3)nc(SCC(=O)Nc3ccccc3)nc2s1 [Example 23, 2-({6-Ethyl-4-[4-(phenylacetyl)piperazin-1-yl]thieno[2,3-d]pyrimidin-2-yl}thio)-N-phenylacetamide]?
A: % Inhibition [1]: 75.04%; inhibition at 10 µM [1]: 64.6%

Q: CCc1cc2c(N3CCN(C(=O)Cc4ccccc4)CC3)nc(SCCNC(C)=O)nc2s1 [Example 15, N-[2-({6-Ethyl-4-[4-(phenylacetyl)piperazin-1-yl]thieno[2,3-d]pyrimidin-2-yl}thio)ethyl]acetamide] was tested. Which IC50 did it give?
A: Its IC50 is 300 nM.

Q: What about the Ki of the same molecule?
A: Its Ki is 170 nM.

Q: What about the “% Inhibition” value [1] of the same molecule?
A: The value was 92.26%.

Q: And the inhibition at 10 µM [1]?
A: The inhibition at 10 µM was 87%.

Q: What does the source list for CCc1cc2c(N3CCN(C(=O)c4ccc(OC)cc4)CC3)nc(SCC(=O)OC)nc2s1 [Example 59, Methyl ({6-ethyl-4-[4-(4-methoxybenzoyl)piperazin-1-yl]thieno[2,3-d]pyrimidin-2-yl}thio)acetate]?
A: IC50: 2970 nM; Ki: 1480 nM; inhibition at 10 µM [1]: 67.1%

Q: What does the source list for CCc1cc2c(N3CCN(C(=O)c4csc(-c5ccccc5)n4)CC3)nc(SCC(=O)OC)nc2s1 [Example 69, Methyl [(6-ethyl-4-{4-[(2-phenyl-1,3-thiazol-4-yl)carbonyl]piperazin-1-yl}thieno[2,3-d]pyrimidin-2-yl)thio]acetate]?
A: IC50: 87.8 nM; Ki: 53 nM; inhibition at 10 µM [1]: 56.8%

Q: With CCc1cc2c(N3CCN(C(=O)c4cccc(OC)c4)CC3)nc(SCC(=O)OC)nc2s1 [Example 75, Methyl ({6-ethyl-4-[4-(3-methoxybenzoyl)piperazin-1-yl]thieno[2,3-d]pyrimidin-2-yl}thio)acetate] as the molecule, how does the IC50 read?
A: Its IC50 is 3500 nM.

Q: What about the Ki of the same molecule?
A: Its Ki is 2250 nM.

Q: And the inhibition at 10 µM [1]?
A: Its inhibition at 10 µM is 70.5%.

Q: How did the IC50 turn out when CCc1cc2c(N3CCN(C(=O)Cc4ccccc4)CC3)nc(SCC(=O)O)nc2s1 [Example 83, ({6-ethyl-4-[4-(phenylacetyl)piperazin-1-yl]thieno[2,3-d]pyrimidin-2-yl}thio)acetic acid] was run?
A: Its IC50 is 230 nM and 940 nM and 430 nM and 470 nM.

Q: And the Ki?
A: Its Ki is 127 nM and 540 nM and 240 nM and 270 nM.

Q: And the “% Inhibition” value [1]?
A: The value was 90.75% and 91.85% and 86.17%.

Q: And the inhibition at 10 µM [1]?
A: The inhibition at 10 µM was 92%.

Q: With CCc1cc2c(N3CCN(C(=O)c4ccc(C(F)(F)F)cc4)CC3)nc(SCC(=O)OC)nc2s1 [Example 46, Methyl [(6-ethyl-4-{4-[4-(trifluoromethyl)benzoyl]piperazin-1-yl}thieno[2,3-d]pyrimidin-2-yl)thio]acetate] as the molecule, how does the IC50 read?
A: Its IC50 is > 10000 nM.

Q: What about the Ki of the same molecule?
A: The Ki was > 6700 nM.

Q: And the inhibition at 10 µM [1]?
A: The inhibition at 10 µM was 41.8%.

Q: For CCc1cc2c(N3CCN(C(=O)c4cccc(C(F)(F)F)c4)CC3)nc(SCC(=O)OC)nc2s1 [Example 60, Methyl [(6-ethyl-4-{4-[3-(trifluoromethyl)benzoyl]piperazin-1-yl}thieno[2,3-d]pyrimidin-2-yl)thio]acetate], which IC50 is on record?
A: Its IC50 is 4870 nM.

Q: What about the Ki of the same molecule?
A: Its Ki is 3160 nM.

Q: What about the inhibition at 10 µM [1] of the same molecule?
A: The inhibition at 10 µM was 60.8%.

Q: With CCc1cc2c(N3CCN(C(=O)c4ccc(-c5csnn5)cc4)CC3)nc(SCC(=O)OC)nc2s1 [Example 66, Methyl [(6-ethyl-4-{4-[4-(1,2,3-thiadiazol-4-yl)benzoyl]piperazin-1-yl}thieno[2,3-d]pyrimidin-2-yl)thio]acetate] as the molecule, how does the IC50 read?
A: Its IC50 is 450 nM.

Q: And the Ki?
A: The Ki was 270 nM.

Q: What about the inhibition at 10 µM [1] of the same molecule?
A: Its inhibition at 10 µM is 74.6%.

Q: CCc1cc2c(N3CCN(C(=O)Cc4ccccc4)CC3)nc(SC(C)C(=O)NCC(=O)O)nc2s1 (stereo not drawn) [Example 11, N-[2-({6-Ethyl-4-[4-(phenylacetyl)piperazin-1-yl]thieno[2,3-d]pyrimidin-2-yl}thio)propanoyl]glycine] was tested. Which IC50 did it give?
A: Its IC50 is 330 nM and 230 nM and 270 nM and 328 nM.

Q: And the Ki?
A: The Ki was 190 nM and 130 nM and 160 nM and 189 nM.

Q: And the inhibition at 1 µM (at highest concentration tested, 1 μM)?
A: Its inhibition at 1 µM is 81%.

Q: What about the “% Inhibition” value [1] of the same molecule?
A: Its value is 92.50% and 88.81%.

Q: What about the inhibition at 10 µM [1] of the same molecule?
A: The inhibition at 10 µM was 90.5%.

Q: For CCc1cc2c(N3CCN(C(=O)c4cccc5ccccc45)CC3)nc(SCC(=O)OC)nc2s1 [Example 50, Methyl ({6-ethyl-4-[4-(1-naphthoyl)piperazin-1-yl]thieno[2,3-d]pyrimidin-2-yl}thio)acetate], which IC50 is on record?
A: The IC50 was > 10000 nM.

Q: What about the Ki of the same molecule?
A: The Ki was > 6700 nM.

Q: And the inhibition at 10 µM [1]?
A: The inhibition at 10 µM was 40.3%.

Q: What does the source list for CCc1cc2c(N3CCN(C(=O)c4cccc(C)c4)CC3)nc(SCC(=O)OC)nc2s1 [Example 61, Methyl ({6-ethyl-4-[4-(3-methylbenzoyl)piperazin-1-yl]thieno[2,3-d]pyrimidin-2-yl}thio)acetate]?
A: IC50: 1910 nM; Ki: 1240 nM; inhibition at 10 µM [1]: 78.5%

Q: What does the source list for CCc1cc2c(N3CCN(C(=O)CCC(=O)OC)CC3)nc(SCC(=O)OC)nc2s1 [Example 42, Methyl 4-(4-{6-ethyl-2-[(2-methoxy-2-oxoethyl)thio]thieno[2,3-d]pyrimidin-4-yl}piperazin-1-yl)-4-oxobutanoate]?
A: IC50: 5740 nM; Ki: 3830 nM; inhibition at 10 µM [1]: 52.3%

Q: How did the IC50 turn out when C#CCCCC(=O)N1CCN(c2nc(SCC(=O)OC)nc3sc(CC)cc23)CC1 [Example 35, Methyl {[6-ethyl-4-(4-hex-5-ynoylpiperazin-1-yl)thieno[2,3-d]pyrimidin-2-yl]thio}acetate] was run?
A: The IC50 was > 10000 nM.

Q: And the Ki?
A: Its Ki is > 6700 nM.

Q: And the inhibition at 10 µM [1]?
A: Its inhibition at 10 µM is -4.55%.

Q: CCc1cc2c(N3CCN(C(=O)Cc4ccccc4)CC3)nc(SCC(=O)Nc3ccc4ccccc4c3)nc2s1 [Example 9, 2-({6-Ethyl-4-[4-(phenylacetyl)piperazin-1-yl]thieno[2,3-d]pyrimidin-2-yl}thio)-N-2-naphthylacetamide] was tested. Which IC50 did it give?
A: Its IC50 is > 10000 nM and 9300 nM.

Q: And the Ki?
A: The Ki was > 5900 nM and 5400 nM.

Q: For CCc1cc2c(N3CCN(C(=O)Cc4ccccc4)CC3)nc(SCC(=O)OC)nc2s1 [Example 7, methyl ({6-ethyl-4-[4-(phenylacetyl)piperazin-1-yl]thieno[2,3-d]pyrimidin-2-yl}thio)acetate], which IC50 is on record?
A: The IC50 was 1020 nM and 380 nM and 420 nM and 320 nM.

Q: What about the Ki of the same molecule?
A: The Ki was 582 nM and 210 nM and 240 nM and 174 nM.

Q: And the “% Inhibition” value [1]?
A: Its value is 89.51% and 95.92% and 94.06%.

Q: What about the inhibition at 10 µM [1] of the same molecule?
A: Its inhibition at 10 µM is 92.9%.

Q: CCc1cc2c(N3CCN(C(=O)c4ccc(C(N)=O)cc4)CC3)nc(SCC(=O)OC)nc2s1 [Example 79, Methyl [(4-{4-[4-(aminocarbonyl)benzoyl]piperazin-1-yl}-6-ethylthieno[2,3-d]pyrimidin-2-yl)thio]acetate] was tested. Which IC50 did it give?
A: Its IC50 is 8700 nM.

Q: And the Ki?
A: The Ki was 5050 nM.

Q: And the inhibition at 10 µM [1]?
A: The inhibition at 10 µM was 47.7%.

Q: How did the IC50 turn out when CCc1cc2c(N3CCN(C(=O)c4ccc(-c5ccccc5)cc4)CC3)nc(SCCO)nc2s1 [Example 32, 2-({4-[4-(1′-Biphenyl-4-ylcarbonyl)piperazin-1-yl]-6-ethylthieno[2,3-d]pyrimidin-2-yl}thio)ethanol] was run?
A: Its IC50 is 52 nM.

Q: What about the Ki of the same molecule?
A: Its Ki is 29 nM.

Q: And the inhibition at 10 µM [1]?
A: Its inhibition at 10 µM is 93.2%.

Q: For CCc1cc2c(N3CCN(C(=O)c4ccc5nccnc5c4)CC3)nc(SCC(=O)OC)nc2s1 [Example 77, Methyl ({6-ethyl-4-[4-(quinoxalin-6-ylcarbonyl)piperazin-1-yl]thieno[2,3-d]pyrimidin-2-yl}thio)acetate], which IC50 is on record?
A: The IC50 was 4850 nM.

Q: What about the Ki of the same molecule?
A: The Ki was 2810 nM.

Q: What about the inhibition at 10 µM [1] of the same molecule?
A: Its inhibition at 10 µM is 63.4%.

Q: With CCc1cc2c(N3CCN(C(=O)/C=C/c4ccccc4)CC3)nc(SCC(=O)OC)nc2s1 [Example 47, Methyl [(6-ethyl-4-{4-[(2E)-3-phenylprop-2-enoyl]piperazin-1-yl}thieno[2,3-d]pyrimidin-2-yl)thio]acetate] as the molecule, how does the IC50 read?
A: Its IC50 is 5440 nM.

Q: What about the Ki of the same molecule?
A: The Ki was 3630 nM.

Q: What about the inhibition at 10 µM [1] of the same molecule?
A: The inhibition at 10 µM was 48.6%.

Q: Which results are given for CCc1cc2c(N3CCN(C(=O)c4ccc(-c5ccccc5)cc4)CC3)nc(SCC(O)CO)nc2s1 (stereo not drawn) [Example 28, 3-({4-[4-(1,1′-Biphenyl-4-ylcarbonyl)piperazin-1-yl]-6-ethylthieno[2,3-d]pyrimidin-2-yl}thio)propane-1,2-diol]?
A: IC50: 38 nM; Ki: 22 nM; inhibition at 10 µM [1]: 94.3%
